The values that follow are results of earlier work, collected in US20240261238A1, “METHOD OF TREATING DRUG RESISTANT EPILEPSY” (ICAHN SCHOOL OF MEDICINE AT MOUNT SINAI, priority 2021, published 2024).

Some results are limits rather than exact numbers.

For orientation: Ki means a measure of affinity in units of concentration, obtained from inhibition or displacement.

The conditions of series [1]: 0.5 mg/kg intravenous infusion given over 40 minutes.
For series [2] the following is noted: intranasal, total dose.
The conditions of series [3]: intranasal for treatment of pain vs intravenous ketamine studies in depression.
Another series addresses NMDA receptors. The conditions noted are these: read-out: Ki for binding to NMDA receptors.
For series [4] the following is noted: iontophoretic patch, 33 men and women.

For the molecule `CNC1(c2ccccc2Cl)CCCCC1=O` (racemic) [ketamine, 2-(2-chlorophenyl)-2-(methylamino)-cyclohexanone], the “serious adverse events caused by IV administration” value is recorded as “No serious adverse events”. Also, in series [1], the “duration of improvements in depression” value is given as “up to 1 week”, the serious adverse events result is given as “no serious adverse events” and the “time to improvements in depression post-injection” value was ≤ 2 h. In series [2], the “dose at which mild adverse effects (dysphoria and/or hallucinations) can occur” value is on record as “greater than 50 mg” and the “dose usually required for mild adverse effects (dysphoria and/or hallucinations)” value is given as “greater than 100 mg”. In addition, the “intranasal plasma levels lower than in intravenous studies” value in series [3] is given as 3-4 fold. Besides, where the note is “IV, euphoria, elevated BP, increased libido, perceptual disturbances”, the “time by which side effects typically abate post-infusion” value was ≤ 80 min.
Regarding `CN[C@@]1(c2ccccc2Cl)CCCCC1=O` [R(−)], the Ki at NMDA receptors was 1.1 µM.
On to `CN[C@]1(c2ccccc2Cl)CCCCC1=O` [S(+)-ketamine], for which the Ki on NMDA receptors was 3.2 µM. The “potency relative to racemic mixture of ketamine” value in series [4] is “two times more potent”.
